# Where two headings read alike, the source gives them in different places.
# What was measured:
# [1] = tested on: retinal ganglion cells, optic nerve axons and myelin; test: Retinal ischemia (FIG. 1, FIG. 2); format: in vivo, rat; conditions: 10 mg/kg s.c. 1 hour prior to ischemia and 10 mg/kg/day for next four days; 28 days after ischemia
# Source text: Retinal ganglion cells were retrogradely labeled in adult rats by bilateral injection of fluorogold in their lateral geniculate nuclei. Labeled ganglion cells in the normal rat retina appear as white profiles against the dark background (FIG. 1A). Complete retinal ischemia was produced by infusing normal saline solution into the retinal vitreous cavity of each eye until the intraocular pressure exceeded arterial blood pressure. 28 days after the ischemic episode extensive degeneration of retinal ganglion cell was evidenced by massive reduction in the density of fluorogold labeled cells (FIG. 1B).
# [2] = tested on: retinal ganglion cells and optic nerve axons; test: Optic nerve transection, 14 or 28 day treatment, evaluated 90 days after transection (Example 6, Table I); format: in vivo, rat; conditions: 90 days after ONT
# Source text: All eyes and optic nerves stumps were removed.
# aged C57BL/6N-Nia mice = test: Morris watermaze, spatial learning and memory in aged rodents (Example 19); format: in vivo, mouse; conditions: 10 mg/kg daily; retention testing after 3 weeks of dosing
# Source text: The Morris watermaze is widely used for assessing spatial memory formation and retention in experimental animals. The test depends on the animal's ability to utilize spatial visual information in order to locate a submerged escape platform in a water tank. It is important that the tank itself be as devoid of specific visual features as possible-thus, it is always circular in shape, the sides are kept smooth and in uniform dull colors and the water is rendered opaque with nontoxic watercolor pigment or powdered milk. This is to ensure that the animal navigates only by the use of more distant visual cues, or by the use of intra-maze cues specifically provided by the experimenter. The tank is filled to a level which forces the animal to swim actively. Normal mice and rats react […] to the swimming part of the test and will climb onto, and remain on, an escape platform from which they are removed to a heated resting cage. If the platform is visible (i.e. above the surface), animals placed in the tank will quickly learn to home in on the platform and climb out onto it. […] Swim Distances (cm) were analyzed in a 7×5 ANOVA including Groups and Blocks (1-5) as factors in the analysis, treating Blocks as a repeated measure.
# [3] = Clearance (Table V, Comments); format: in vitro ADME
Clearance [3] [µL/min],Clearance ([3]; unit printed as μl/ml),Structure (SMILES),protection of retinal ganglion cells after retinal ischemia (fluorogold labeled cells) [1],"Distal optic nerve myelin basic protein Density: shrinkage of cross sectional area ([2]; GPI 1046 14 days, compared to sham control)","Distal optic nerve myelin basic protein Density: myelin loss ([2]; GPI 1046 14 days, cross sectional area multiplied by myelin density)",Distal optic nerve myelin basic protein Density: less shrinkage of cross sectional area ([2]; GPI 1046 28 days),"spatial memory performance (swim distance), retention testing, aged impaired mice vs vehicle (aged C57BL/6N-Nia mice)"
63.5,–,CCC(C)(C)C(=O)C(=O)N1CCC[C@H]1C(=O)OCCCc1cccnc1 [GPI 1046],noticeable protection of a large proportion of the vulnerable ganglion cell population,did not protect against shrinkage of the distal stump,slightly increase the density of myelin,prevented cross sectional shrinkage,significantly enhanced spatial memory performance
–,21.9,CN(C)C(=O)N1CCC[C@H]1C(=O)SCCCc1ccccc1 [N],–,–,–,–,–

# Reference: patent publication US7265150B1, “Carboxylic acids and carboxylic acid isosteres of N-heterocyclic compounds for vision and memory disorders” (GPI NIL Holdings Inc., priority 1998, dated 2007)
